Here are results for 8 compounds from PMC3166231 (Inorganic chemistry, 2010).

For data set [1] the following is noted: pH = 7.4, [Fe3+] = 1.0 × 10^−6 mol dm^−3, [L] = 1.0 × 10^−5 mol dm^−3, cited from earlier work.
The conditions of data set [2]: cited from earlier work; for pFe: bidentate donor group, ref [17]–[20]; for K2 (proton independent stepwise formation constant): second ligand; for K3 (proton independent stepwise formation constant): third ligand.
The next data set can be described thus: Literature Fe. The class given is binding. Conditions: refs [19], [21]; for Δ1–2: difference K1 − K2 of cited stepwise constants; for Δ2–3: difference K2 − K3 of cited stepwise constants.
For data set [3] the following is noted: ref [14]; cited from earlier work.

Structures can show the parent of a compound that is named as a salt. Where two headings read alike, the source gives them in different places. Marks after values point to notes of the source that are not given here.

`Cn1cccc(O)c1=O` [1-methyl-3-hydroxypyridin-2-one]: the pFe in data set [1] (ref [63]) was 16 ^b.

With `O=c1[nH]cccc1O` [3,2-HOPO], in data set [2], the pFe was 16.26. The “K1 (proton independent stepwise formation constant)” value in data set [2] (iron complex, first ligand, ref [19], [21]) is recorded as 11.48. In addition, in data set [2] (iron complex, ref [19], [21]), the “K2 (proton independent stepwise formation constant)” value is 9.77 and the “K3 (proton independent stepwise formation constant)” value is 8.01. Besides, in “Literature Fe”, the “Δ1–2” value was determined as 1.71 and the “Δ2–3” value stood at 1.76.

For `Oc1cccnc1O` [3-hydroxy-2-pyridinone], the “pKa of the 3-hydroxy-2-pyridinone donor group alone” value in data set [3] is reported as 8.66.

Consider `O=C(O)c1ccc(-n2nc(-c3ccccc3O)nc2-c2ccccc2O)cc1` [Deferasirox, deferasirox], for which, in data set [1] (ref [65]), the pFe is given as 23.5 ^d.

Regarding `Cc1c(O)c(=O)ccn1C` [Deferiprone, 1,2-dimethyl-3-hydroxy-4-pyridinone], in data set [1] (ref [64]), the pFe is given as 19.4 ^c.

For `CC(=O)N(O)CCCCCNC(=O)CCC(=O)N(O)CCCCCNC(=O)CCC(=O)N(O)CCCCCN` [Deferrioxamine B, desferrioxamine B mesylate], in data set [1] (ref [67]), the pFe was 26.6 ^h.

Regarding `Oc1ccccc1O` [catechol], the pFe in data set [2] was 15.1. Further, in data set [2] (iron complex, ref [19], [21]), the “K2 (proton independent stepwise formation constant)” value is 15.5 and the “K3 (proton independent stepwise formation constant)” value was 9.4. In “Literature Fe”, the “Δ1–2” value is given as 4.9 and the “Δ2–3” value is 6.1.

With “Transferrin: iron transport protein used as pFe comparison”, the pFe in data set [1] (ref [66]) is 23.6 ^e.
